The values below come from ChEMBL document CHEMBL1795340, “A discovery of novel Mycobacterium tuberculosis pantothenate synthetase inhibitors based on the molecular mechanism of actinomycin D inhibition” (Bioorg Med Chem Lett, 2011).

SMILES strings stand for the structures. Converted amounts (≈) assume the structure as drawn. Where a name gives a salt, the structure may show the parent alone. Numbered stars: 1 amine (or outer) side, 2 acyl side, 3 side chain; on linkers, the order of the positions; unused ones are H or OH. Bridge positions count the residues as written; N and C are the ends. Square brackets hold non-standard residues; d marks the D form. Peptide text beside a SMILES is read from it. I, II: the chains in the order shown. Actinocin(9to1) = Cc1c2oc3c(C)ccc(C(=O)[*:1])c3nc-2c(C(=O)[*:2])c(N)c1=O; NMeV = CN[C@H](C(=O)O)C(C)C; Sar = CNCC(=O)O

Test [1] addresses T1, Pantothenate synthetase (Mycobacterium tuberculosis, UniProt P9WIL5).
T1 sequence (P9WIL5 whole entry): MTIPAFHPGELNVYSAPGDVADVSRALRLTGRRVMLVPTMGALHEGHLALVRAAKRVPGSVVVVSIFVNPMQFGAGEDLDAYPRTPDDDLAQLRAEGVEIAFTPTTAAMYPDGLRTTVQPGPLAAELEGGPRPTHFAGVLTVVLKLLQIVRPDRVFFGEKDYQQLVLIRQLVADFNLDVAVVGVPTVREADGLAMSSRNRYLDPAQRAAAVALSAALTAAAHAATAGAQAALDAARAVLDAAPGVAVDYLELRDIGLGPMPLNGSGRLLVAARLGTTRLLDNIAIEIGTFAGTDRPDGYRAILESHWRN
Description: Inhibition of Mycobacterium tuberculosis pantothenate synthetase by high throughput screening method.

Test [2] deals with T1, Pantothenate synthetase. Description: Competitive inhibition of Mycobacterium tuberculosis pantothenate synthetase using beta-alanine by Dixon plot analysis.
For test [3], the target named is T2, Pantothenate synthetase (Mycobacterium tuberculosis) (UniProt P9WIL5).
T2 sequence (whole entry): T1 sequence (P9WIL5 whole entry)
Description: Inhibition of Mycobacterium tuberculosis pantothenate synthetase at 50 uM by high throughput screening method relative to control.

Test [4] has as its target T1, Pantothenate synthetase. Briefly: Competitive inhibition of Mycobacterium tuberculosis pantothenate synthetase using ATP by Dixon plot analysis.
Test [5] relates to Mycobacterium tuberculosis. Briefly: Antimycobacterial activity against Mycobacterium tuberculosis H37Rv. The class given is functional.

Regarding `Cc1c2oc3c(C)ccc(C(=O)N[C@@H]4C(=O)N[C@H](C(C)C)C(=O)N5CCC[C@H]5C(=O)N(C)CC(=O)N(C)[C@@H](C(C)C)C(=O)O[C@@H]4C)c3nc-2c(C(=O)N[C@@H]2C(=O)N[C@H](C(C)C)C(=O)N3CCC[C@H]3C(=O)N(C)CC(=O)N(C)[C@@H](C(C)C)C(=O)O[C@@H]2C)c(N)c1=O` [DACTINOMYCIN] (I: T[dV]P[Sar][NMeV] / II: T[dV]P[Sar][NMeV]; ester I:1-I:C, II:1-II:C; linker I:N-II:N via Actinocin(9to1)), in test [1], half-maximal inhibition (IC50) required 251 µM.

`CCN(CC)CCOC(=O)C(Cc1cccc2ccccc12)CC1CCCO1` (stereo not drawn) [NAFRONYL OXALATE] returned a concentration for half-maximal inhibition (IC50) in test [1] of 398 µM.

`COC(=O)c1cc2c(OCc3ccccc3)cc(N)cc2[nH]1`: the Ki was 19.7 µM in test [2] and 1.4 µM in test [4]. Also, the inhibition in test [3] came to 69.4%. Moreover, the MIC in test [5] was found to be 54 µM (≈ 16 µg/mL). For the same compound, the concentration for half-maximal inhibition (IC50) in test [1] turned out to be 22.4 µM.

On to `C=C/C=C/C=C/c1cccc(NNC(=O)CCC(=O)O)c1`, for which the inhibition in test [3] amounted to 27.1%.
